Measured values: patent publication US11571413B2, “Nicotinamide riboside treatments of domesticated meat animals” (Kansas State University Research Foundation, priority 2017, dated 2023)
Marks after values point to notes of the source that are not given here.

System: Fertilized Cobb 500 broiler eggs
Assay: In ovo NR dose, time course of body and pectoralis major morphometrics at E15, E19, hatch (second Example VI)
Type: in vivo, chicken
Method: Fertilized Cobb 500 broiler eggs (N=247; Cobb Vantress, Siloam Springs, Ark.) were transported to Kansas State University Muscle Biology Laboratory (Manhattan, Kans.), egg weights were recorded, and within each 4 egg strata eggs were randomly assigned to an NR treatment (0 mM, 250 mM, 500 mM, or 1 M NR). After treatment allocation, eggs were put onto trays and placed in a Sportsman 1502 incubator (GQF Manufacturing Company Inc., Savannah, Ga.) set to operate at 37° C. and 40±4% relative humidity. Trays were rotated hourly to reposition eggs and egg weights were recorded daily to determine percentage weight loss with a standard daily weight loss ranging from 0.65% to 0.75%.
At d 10 of incubation, the methods of Gonzalez and Jackson (2020) were followed for treatment administration. Eggs were briefly removed from the incubator and prior to injection, the injection site was cleaned with 70% ethanol. […] of 0.9% sterile saline was injected into yolk sac of each egg with a 2.54-cm, 20-guage injection needle inserted approximately 1-cm into injection site. The injection site was covered with a 1-cm^2 portion of medical tape (Nexcare; 3M, Maplewood, Minn.) and placed back into the incubator under the conditions described above. At d 18 of incubation, egg were removed from their trays, placed in hatching boxes, and the humidity of the incubator was increased to 60±2%.
At three time points, E (i.e., embryonic day 15, day 15 after the beginning of incubation), E19, and 24 hours post-hatching, embryos and chicks were euthanized by exposure to CO2 and decapitation. Crown to rump length (CR), head width and head length were measured by calipers (Traceable Digital Calipers; Fisher Scientific, Pittsburg, Pa.). Head and chest circumference were collected by curling a string around the target area and measuring the length of the curled string by a ruler. Chicks chest were sprayed with 70% ethanol, were skinned to expose the PMM, and chest width and length were measured by calipers. Both sides of the PMM were removed and the left side was weighed, followed by length, width, and thickness measurement collection. Following measurement collection, the left PMM was submerged in optimal cutting temperature tissue freezing medium compound, slowly frozen at −20° C. for 1 h, and stored at −80° C. until cryosectioning. The right side of PMM was stored in a 1.5 ml microcentrifuge tube and stored at −80° C. until NAD+ analysis. At last, the heart and liver of each chick were removed, weighed, and discarded.

[1] = 250 mM NR into yolk sac d 10, E15 embryos
[2] = 250 mM NR into yolk sac d 10, E19 embryos
[3] = 250 mM NR into yolk sac d 10, hatched chicks
[4] = 500 mM NR into yolk sac d 10, E15 embryos
[5] = 500 mM NR into yolk sac d 10, E19 embryos
[6] = 500 mM NR into yolk sac d 10, hatched chicks
[7] = 1,000 mM NR into yolk sac d 10, E15 embryos
[8] = 1,000 mM NR into yolk sac d 10, E19 embryos
[9] = 1,000 mM NR into yolk sac d 10, hatched chicks
[10] = E19 embryos, 250 to 1,000 mM NR

In the case of NC(=O)c1ccc[n+]([C@@H]2O[C@H](CO)[C@@H](O)[C@H]2O)c1 [Nicotinamide riboside, nicotinamide riboside], the Body weight [1] is reported as 14.5 g, the Crown-rump length [1] is reported as 61.4 mm and the Head length [1] is reported as 17.6 mm. For the same molecule, the Head width [1] was 13.7 mm, the Heart weight [1] was 0.14 g and the Liver weight [1] was 0.27 g. For the same molecule, the Pectoralis major depth [1] was 7.2 mm, the Pectoralis major length [1] was 18.3 mm and the Pectoralis major weight [1] was 0.81 g. For the same molecule, the Pectoralis major width [1] was 14.7 mm, the Body weight [2] was 37.7 g and the Chest circumference [2] was 59.5 mm. The Chest length [2] was 18.6 mm, the Chest width [2] was 15.5 mm and the Crown-rump length [2] was 84.3 mm. For the same molecule, the Head circumference [2] was 53.2^a,c mm, the Head length [2] was 17.7 mm and the Head width [2] was 15.4 mm. For the same molecule, the Heart weight [2] was 0.22 g, the Liver weight [2] was 0.64 g and the Pectoralis major depth [2] was 2.9 mm. For the same molecule, the Pectoralis major length [2] was 17.2^b mm, the Pectoralis major weight [2] was 0.17^b g and the Pectoralis major width [2] was 5.5 mm. The Body weight [3] was 46.9 g, the Chest circumference [3] was 61.2 mm and the Chest length [3] was 21.9 mm. The Chest width [3] was 17.1^b mm, the Crown-rump length [3] was 95.4 mm and the Head circumference [3] was 55.7 mm. The Head length [3] was 18.7^b mm, the Head width [3] was 15.5 mm and the Heart weight [3] was 0.31 g. The Liver weight [3] was 0.84 g, the Pectoralis major depth [3] was 3.1^a,b mm and the Pectoralis major length [3] was 19.9^b mm. For the same molecule, the Pectoralis major weight [3] was 0.23^b g, the Pectoralis major width [3] was 5.5^b mm and the Body weight [4] was 14.2 g. For the same molecule, the Crown-rump length [4] was 61.1 mm, the Head length [4] was 17.8 mm and the Head width [4] was 13.7 mm. The Heart weight [4] was 0.13 g, the Liver weight [4] was 0.25 g and the Pectoralis major depth [4] was 7.1 mm. The Pectoralis major length [4] was 17.8 mm, the Pectoralis major weight [4] was 0.82 g and the Pectoralis major width [4] was 15.2 mm. The Body weight [5] was 37.9 g, the Chest circumference [5] was 60.1 mm and the Chest length [5] was 18.5 mm. The Chest width [5] was 16.3 mm, the Crown-rump length [5] was 85.9 mm and the Head circumference [5] was 54.8^b,c mm. It also gave a Head length [5] of 17.4 mm, a Head width [5] of 15.3 mm and a Heart weight [5] of 0.22 g. The Liver weight [5] was 0.64 g, the Pectoralis major depth [5] was 2.7 mm and the Pectoralis major length [5] was 17.7^b mm. The Pectoralis major weight [5] was 0.18^b g, the Pectoralis major width [5] was 5.7 mm and the Body weight [6] was 46.1 g. For the same molecule, the Chest circumference [6] was 62.5 mm, the Chest length [6] was 21.2 mm and the Chest width [6] was 16.6^a,b mm. For the same molecule, the Crown-rump length [6] was 95.0 mm, the Head circumference [6] was 55.6 mm and the Head length [6] was 18.2^a,b mm. The Head width [6] was 15.7 mm, the Heart weight [6] was 0.31 g and the Liver weight [6] was 0.90 g. For the same molecule, the Pectoralis major depth [6] was 3.3^b mm, the Pectoralis major length [6] was 20.3^b mm and the Pectoralis major weight [6] was 0.23^b g. For the same molecule, the Pectoralis major width [6] was 5.6^b mm, the Body weight [7] was 13.9 g and the Crown-rump length [7] was 61.0 mm. The Head length [7] was 17.4 mm, the Head width [7] was 14.0 mm and the Heart weight [7] was 0.14 g. For the same molecule, the Liver weight [7] was 0.28 g, the Pectoralis major depth [7] was 6.6 mm and the Pectoralis major length [7] was 18.5 mm. It also gave a Pectoralis major weight [7] of 0.84 g, a Pectoralis major width [7] of 14.9 mm and a Body weight [8] of 38.1 g. It also gave a Chest circumference [8] of 61.5 mm, a Chest length [8] of 18.3 mm and a Chest width [8] of 15.4 mm. For the same molecule, the Crown-rump length [8] was 86.3 mm, the Head circumference [8] was 55.0^b mm and the Head length [8] was 17.6 mm. It also gave a Head width [8] of 15.4 mm, a Heart weight [8] of 0.23 g and a Liver weight [8] of 0.63 g. For the same molecule, the Pectoralis major depth [8] was 2.9 mm, the Pectoralis major length [8] was 17.6^b mm and the Pectoralis major weight [8] was 0.17^b g. The Pectoralis major width [8] was 5.6 mm, the Body weight [9] was 46.6 g and the Chest circumference [9] was 61.4 mm. The Chest length [9] was 21.1 mm, the Chest width [9] was 16.1^a mm and the Crown-rump length [9] was 93.0 mm. The Head circumference [9] was 53.9 mm, the Head length [9] was 17.8^a mm and the Head width [9] was 15.5 mm. For the same molecule, the Heart weight [9] was 0.32 g, the Liver weight [9] was 0.96 g and the Pectoralis major depth [9] was 3.0^a mm. For the same molecule, the Pectoralis major length [9] was 19.1^a,b mm, the Pectoralis major weight [9] was 0.22^b g and the Pectoralis major width [9] was 5.4^b mm. For the same molecule, the “Increase of PMM length (minimum over NR doses)” value [10] was ≥ 13%, the “Increase of PMM weight (minimum over NR doses)” value [10] was ≥ 21% and the “Increase in PMM depth” value (at hatch) was 18%. The “Increase in PMM length” value (at hatch) was 13%, the “Increase in PMM width” value (at hatch) was 17% and the PMM weight advantage (at hatch) was 35%.
